Legend:
E. coli = assay: Bacteriostatic screening (growth, OD630) against E. coli; format: cell-based; details: for IC50 / inhibition at 250 µM: Escherichia coli; for IC50: 24 h, IC50 generated when inhibition at 250 μM was higher than 80%; for inhibition at 250 µM / inhibition rate (%) EC: at 250 μM of the tested compound; for inhibition at 250 µM: read-out: inhibition rate (%) EC; for inhibition rate EC (symbol /): at 250 μM of tested compound
In short: (§1)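 Overnight (12 h, 37 °C) LB cultures of ATCC strains were diluted 1000-fold and exposed to graded compound concentrations at 1% final DMSO, following a modified NCCLS protocol. Ciprofloxacin was the reference; runs were in triplicate, with cell-free blanks. Growth was read as OD630.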

[1] = Cytotoxicity (MTT) in AD-293 cells; format: cell-based; details: human, AD-293 cells (HEK293 derivative), treated for 24 h
[2] = system: TNF-α/NF-κB signaling pathway; assay: TNF-α/NF-κB luciferase reporter assay in AD-293 cells; format: cell-based; details: AD-293 reporter cells, 50 ng mL−1 TNF-α, treated for 4 h
Description: (§2) We utilized luciferase reporters bearing the promoter regions of TNF-α/NF-κB, TLR4/NF-κB, and IL-6/STAT3 ([ref. 25]) to examine the activities of the antibacterial active andrographolide analogs in the regulation of signaling pathways that govern inflammatory response (Table 2). […] Like their similarity in inhibitory activity against E. faecalis, E. coli and S. aureus (Table 1), 3-keto-19-alcohol compound 9b1 suppresses three signaling pathways in the same fashion as 6b17 (Table 2). […] Cells from the AD-293 cell line, a derivative of the HEK293 cell line with improved adherence and plaque formation properties, were purchased from Stratagene (La Jolla, CA, USA). The protocols were adopted and modified from our previous report.[25] All compounds were dissolved in DMSO at 10 mM as a stock solution. The final concentration of DMSO was 0.1% in the culture medium. AD-293 cells bearing luciferase reporters with promoter regions of IL-6/STAT3 and TNF-α/NF-κB in pGL4.20 vector (Promega) were maintained in DMEM high glucose medium supplemented with 10% FBS and 1% penicillin streptomycin in the presence of 1 μg mL^−1 puromycin. AD-293 cells overexpressing TLR4 and stably transfected with NF-κB reporter were maintained in DMEM high glucose medium in the presence of 1 μg mL^−1 puromycin and 10 μg mL^−1 blasticidin. All cells were maintained in a humidified incubator at 37 °C in 95% air and 5% CO2. Reporter cells were treated with 50 ng mL^−1 TNF-α to stimulate the NF-κB signaling pathway, 1 μg mL^−1 LPS to stimulate the TLR4/NF-κB signaling pathway, and 2.5 μg mL^−1 IL-6 to stimulate the IL-6/STAT3 signaling pathway. The medium was removed at the end of the treatment, cell extracts were prepared, and the luciferase activity was measured using a Luciferase assay kit (Promega) according to the manufacturer's instructions. EC50 was defined as the concentration of drug that inhibited stimulator-triggered luciferase reporter activation by 50% after continuous drug exposure for 4 (TNF-α/NF-κB) or 16 (IL-6/STAT3 and TLR4/NF-κB) hours. Each concentration was repeated 3 times independently.

[3] = system: TLR4/NF-κB signaling pathway; assay: TLR4/NF-κB luciferase reporter assay in AD-293 cells; format: cell-based; details: AD-293 reporter cells, 1 μg mL−1 LPS, treated for 16 h
Description: as §2

S. aureus = assay: Bacteriostatic screening (growth, OD630) against S. aureus; format: cell-based; details: for IC50 / inhibition at 250 µM: Staphylococcus aureus; for IC50: 24 h, IC50 generated when inhibition at 250 μM was higher than 80%; for inhibition at 250 µM / inhibition rate (%) SA: at 250 μM of the tested compound; for inhibition at 250 µM: read-out: inhibition rate (%) SA; for inhibition rate SA (symbol /): at 250 μM of tested compound
In short: as §1

E. faecalis = assay: Bacteriostatic screening (growth, OD630) against E. faecalis; format: cell-based; details: for IC50: 24 h, IC50 generated when inhibition at 250 μM was higher than 80%; for inhibition rate (%) EF: at 250 μM of the tested compound
In short: as §1

[4] = system: IL-6/STAT3 signaling pathway; assay: IL-6/STAT3 luciferase reporter assay in AD-293 cells; format: cell-based; details: AD-293 reporter cells, 2.5 μg mL−1 IL-6, treated for 16 h
Description: as §2

AD-293 cells = assay: Cytotoxicity (MTT) in AD-293 cells; format: cell-based; details: treated for 24 h

Molecule: C=C1CC[C@@H]2[C@](C)(CO)[C@H](O)CC[C@@]2(C)[C@@H]1C/C=C1/C(=O)OC[C@@H]1Oc1cccc2cccnc12 [6b17, (14β)-(Quinolyl-8′-oxy)andrographolide]
- IC50 (E. coli): 21.6 ± 1.7 µM
- CC50 at 24 h [1]: > 10 µM
- EC50 ([2]; Homo sapiens, AD293): 2 ± 0.28 µM
- melting point: 134 to 136 °C
- EC50 ([3]; Homo sapiens, AD293): 2.65 ± 0.07 µM
- IC50 (S. aureus): 37.5 ± 2.2 µM
- IC50 (E. faecalis; Enterococcus faecalis): 6.3 ± 1.5 µM
- times more active than 5b17 against E. faecalis (E. faecalis; versus 5b17): 3 times
- EC50 ([4]; Homo sapiens, AD293): 2.41 ± 0.31 µM

Molecule: C=C1CC[C@@H]2[C@](C)(COC(C)=O)[C@H](O)CC[C@@]2(C)[C@@H]1C/C=C1/C(=O)OC[C@@H]1Oc1cccc2cccnc12 [7b1, (14β)-(quinolyl-8′-oxy)-19-acetoxy andrographolide]
- inhibition at 250 µM (E. coli): 60%
- CC50 at 24 h [1]: > 10 µM
- EC50 ([2]; Homo sapiens, AD293): 4.91 ± 0.02 µM
- EC50 ([3]; Homo sapiens, AD293): > 10 µM
- inhibition at 250 µM (S. aureus): 58%
- IC50 (E. faecalis; Enterococcus faecalis): 8.6 ± 0.7 µM
- EC50 ([4]; Homo sapiens, AD293): > 10 µM

Molecule: C=C1CC[C@H]2[C@@](C)(CCC(=O)[C@@]2(C)COC(C)=O)[C@@H]1C/C=C1/C(=O)OC[C@@H]1Oc1cccc2cccnc12 [8b1, (14β)-(quinolyl-8′-oxy)-3-keto-19-acetoxy andrographolide]
- inhibition at 250 µM (E. coli): 34%
- CC50 at 24 h [1]: > 10 µM
- EC50 ([2]; Homo sapiens, AD293): > 10 µM
- EC50 ([3]; Homo sapiens, AD293): 4.84 ± 0.31 µM
- inhibition at 250 µM (S. aureus): 42%
- IC50 (E. faecalis; Enterococcus faecalis): 7.6 ± 0.8 µM
- EC50 ([4]; Homo sapiens, AD293): > 10 µM

Molecule: C=C1CCC2C3(C)COC(C)(C)OC3CCC2(C)C1CC=C1C(=O)OCC1Oc1cccc2cccnc12 (stereo not drawn) [5b17, (14β)-(Quinolyl-8′-oxy)-3,19-acetonylidene andrographolide]
- inhibition rate (%) EC (E. coli): (47) %
- CC50 (AD-293 cells): > 10 µM
- EC50 [2]: 2.45 ± 0.49 µM
- EC50 [3]: 2.85 ± 0.07 µM
- inhibition rate (%) SA (S. aureus): (27) %
- IC50 (E. faecalis): 19.3 ± 2.3 µM
- EC50 [4]: 6.35 ± 0.77 µM

Molecule: C=C1CCC2C(C)(CO)C(O)CCC2(C)C1CC=C1C(=O)OCC1Oc1cccnc1[N+](=O)[O-] (stereo not drawn) [6a15, (14α)-(2′-Nitro-pyridinyl-3′-oxy)andrographolide]
- inhibition rate (%) EC (E. coli): (14) %
- inhibition rate (%) SA (S. aureus; 250 µM): (13) %
- IC50 (E. faecalis): 56.7 ± 5.5 µM

Molecule: C=C1CCC2C(C)(CO)C(O)CCC2(C)C1CC=C1C(=O)OCC1Oc1ccc([N+](=O)[O-])cc1F (stereo not drawn) [6b2, (14β)-(2′-Fluoro-4′-nitro)phenoxy-andrographolide]
- inhibition rate (%) EC (E. coli; 250 µM): (42) %
- inhibition rate (%) SA (S. aureus; 250 µM): (25) %
- IC50 (E. faecalis): 24.4 ± 3.2 µM

Molecule: C=C1CC[C@@H]2[C@](C)(CO[Si](C)(C)C(C)(C)C)[C@H](O)CC[C@@]2(C)[C@@H]1C/C=C1/C(=O)OC[C@@H]1Oc1cccc2cccnc12 [7b2, (14β)-(quinolyl-8′-oxy)-19-(t-butyldimethylsilyloxy)andrographolide]
- inhibition at 250 µM (E. coli): 24%
- melting point: 149 to 151 °C
- inhibition at 250 µM (S. aureus): 23%
- IC50 (E. faecalis; Enterococcus faecalis): 26.2 ± 2.8 µM

Molecule: C=C1CCC2C3(C)COC(C)(C)OC3CCC2(C)C1CC=C1C(=O)OCC1Oc1ccc([N+](=O)[O-])cc1F (stereo not drawn) [5b2, (14β)-(2′-Fluoro-4′-nitro)phenoxy-3,19-acetonylidene andrographolide]
- inhibition rate (%) EC (E. coli): (11) %
- inhibition rate (%) SA (S. aureus): (26) %
- inhibition rate (%) EF (E. faecalis): (56) %

Molecule: C=C1CCC2C(C)(CO)C(O)CCC2(C)C1CC=C1C(=O)OCC1Oc1ccccc1C(=O)OCC (stereo not drawn) [6b8, (14β)-(2′-Carboxyethyl ester)phenoxy-andrographolide]
- inhibition rate (%) EC (E. coli): (21) %
- inhibition rate SA (symbol /) (S. aureus): / (“/”represents no inhibition or lower than 10% inhibition rate at 250 μM of tested compound)
- IC50 (E. faecalis): 89.7 ± 12 µM

Molecule: C=C1CCC2C(C)(CO)C(O)CCC2(C)C1CC=C1C(=O)OCC1Oc1ccnc2ccccc12 (stereo not drawn) [6a16, (14α)-(Quinolyl-4′-oxy)andrographolide]
- inhibition rate EC (symbol /) (E. coli): / (“/”represents no inhibition or lower than 10% inhibition rate at 250 μM of tested compound)
- inhibition rate (%) SA (S. aureus): (22) %
- IC50 (E. faecalis): 65.8 ± 13.5 µM

Molecule: C=C1CC[C@@H]2[C@](C)(CO)[C@H](O)CC[C@@]2(C)[C@@H]1C/C=C1/C(=O)OC[C@H]1O [compound 1, Andrographolide]
- CC50 at 24 h [1]: > 10 µM
- EC50 ([2]; Homo sapiens, AD293): > 10 µM
- EC50 ([3]; Homo sapiens, AD293): > 10 µM
- EC50 ([4]; Homo sapiens, AD293): > 10 µM

Molecule: C=C1CC[C@H]2[C@@](C)(CCC(=O)[C@@]2(C)CO)[C@@H]1C/C=C1/C(=O)OC[C@@H]1Oc1cccc2cccnc12 [9b, (14β)-(quinolyl-8′-oxy)-3-keto andrographolide]
- IC50 (E. coli): 27.9 ± 1.5 µM
- CC50 at 24 h [1]: > 10 µM
- EC50 ([2]; Homo sapiens, AD293): 2.03 ± 0.01 µM
- melting point: 141 to 143 °C
- EC50 ([3]; Homo sapiens, AD293): 5.96 ± 0.03 µM
- IC50 (S. aureus): 27.6 ± 1.8 µM
- IC50 (E. faecalis; Enterococcus faecalis): 9.1 ± 2.1 µM
- EC50 ([4]; Homo sapiens, AD293): 6.13 ± 0.39 µM

Molecule: (14β)-(2′-Nitro)phenoxy-3,19-acetonylidene andrographolide [5b6]
- inhibition rate EC (symbol /) (E. coli): / (“/”represents no inhibition or lower than 10% inhibition rate at 250 μM of tested compound)
- inhibition rate SA (symbol /) (S. aureus): / (“/”represents no inhibition or lower than 10% inhibition rate at 250 μM of tested compound)
- inhibition rate (%) EF (E. faecalis): 43%

Molecule: C=C1CCC2C(C)(CO)C(O)CCC2(C)C1CC=C1C(=O)OCC1Oc1ccc([N+](=O)[O-])c(F)c1 (stereo not drawn) [6a4, (14α)-(3′-Fluoro-4′-nitro)phenoxy-andrographolide]
- inhibition rate EC (symbol /) (E. coli): / (“/”represents no inhibition or lower than 10% inhibition rate at 250 μM of tested compound)
- inhibition rate SA (symbol /) (S. aureus): / (“/”represents no inhibition or lower than 10% inhibition rate at 250 μM of tested compound)
- inhibition rate (%) EF (E. faecalis): (44) %

Molecule: C=C1CCC2C3(C)COC(C)(C)OC3CCC2(C)C1CC=C1C(=O)OCC1Oc1ccc([N+](=O)[O-])cc1OC (stereo not drawn) [5a3, (14α)-(2′-Methoxy-4′-nitro)phenoxy-3,19-acetonylidene andrographolide]
- inhibition rate (%) EC (E. coli): (21) %
- inhibition rate (%) SA (S. aureus; 250 µM): (18) %
- inhibition rate (%) EF (E. faecalis; 250 µM): (60) %

Molecule: C=C1CCC2C3(C)COC(C)(C)OC3CCC2(C)C1CC=C1C(=O)OCC1Oc1ccccc1OC (stereo not drawn) [5a12, (14α)-(2′-Methoxy)phenoxy-3,19-acetonylidene andrographolide]
- inhibition rate EC (symbol /) (E. coli): / (“/”represents no inhibition or lower than 10% inhibition rate at 250 μM of tested compound)
- inhibition rate SA (symbol /) (S. aureus): / (“/”represents no inhibition or lower than 10% inhibition rate at 250 μM of tested compound)
- inhibition rate (%) EF (E. faecalis; 250 µM): (49) %

Molecule: C=C1CCC2C(C)(CO)C(O)CCC2(C)C1CC=C1C(=O)OCC1Oc1ccc(C(=O)OCC)cc1 (stereo not drawn) [6b9, (14β)-(4′-Carboxyethyl ester)phenoxy-andrographolide]
- inhibition rate (%) EC (E. coli): (17) %
- inhibition rate (%) SA (S. aureus): (40) %
- IC50 (E. faecalis): 53.3 ± 4.1 µM

Reference: article PMC9078697, “Discovery and preliminary SAR of 14-aryloxy-andrographolide derivatives as antibacterial agents with immunosuppressant activity” (RSC Advances, 2018)
